Entries after “also recorded” stand apart in the source; their conditions may differ.
Assays:
HOIP RBR domain [1] = target: T1, HOIP RBR domain (Homo sapiens, UniProt Q96EP0); assay: Protein LC-MS compound screening of analogs; assay type: binding; conditions: 2 μM protein, 0.5, 4, 24 h; for labeling of HOIP RBR domain relative to hit (5): 20 μM compound (10-fold excess)
T1 construct: made in house; host or cells: E. coli BL21-GOLD(DE3)
T1 sequence (Q96EP0 697-1072): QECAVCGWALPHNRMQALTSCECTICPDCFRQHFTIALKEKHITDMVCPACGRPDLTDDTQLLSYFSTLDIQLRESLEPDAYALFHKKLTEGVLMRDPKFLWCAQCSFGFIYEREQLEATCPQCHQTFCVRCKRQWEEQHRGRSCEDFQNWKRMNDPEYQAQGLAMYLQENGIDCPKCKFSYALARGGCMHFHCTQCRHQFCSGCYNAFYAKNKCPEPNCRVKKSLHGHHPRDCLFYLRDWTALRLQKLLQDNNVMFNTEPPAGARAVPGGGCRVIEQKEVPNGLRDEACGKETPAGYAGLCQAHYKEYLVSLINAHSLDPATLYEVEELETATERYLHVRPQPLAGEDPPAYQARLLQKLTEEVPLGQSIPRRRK
Method: of (1) and 3 mM stock solution of (5) in DMSO, giving a final concentration of 6 and 30 µM respectively, and 1% DMSO).
The UbcH5c and UbcH7 E2 enzymes were diluted with buffer to afford new stock solutions at 10 µM, of which 25 µL was used for each sample (final concentration 5 µM, 85-91 µg/mL), together with 24.5 µL buffer and 0.5 µL compound solution (1 mM stock solution of (1) and 5 mM stock solution of (5) in DMSO, giving a final concentration of 10 and 50 µM respectively, and 1% DMSO).
The E1 enzyme was diluted with buffer to afford a new stock solution at 2 µM, of which 25 µL was used for each sample (final concentration 1 µM, 120 µg/mL), together with 24.5 µL buffer and 0.5 µL compound solution (200 µM stock solution of (1) and 1 mM stock solution of (5) in DMSO, giving a final concentration of 2 and 10 µM respectively, and 1% DMSO).
Protocol as described above, using the HOIP RBR (stock solutions around 300 µM) in buffer (50 mM HEPES, 150 mM NaCl, pH 7.5) to afford a new stock solution at 4 µM of which 25 µL was used for each sample (final concentration 2 µM, 87 µg/mL), together with 24.5 µL buffer and 0.5 µL compound solution (2 mM stock solutions in DMSO, giving a final concentration of 20 µM, and 1% DMSO). The samples were analyzed after 0.5, 4, and 24 h incubation.
Supplementary Figure S7. TIC traces of deconvoluted protein masses from the screening of analogues to hit compound (5). The HOIP RBR (2 µM; MW = 43398 g/mol) was incubated with […]
compound (17) and aliquots were analyzed after 0.5, 4, and 24 h incubation. The data was used for the generation of the heat map in Figure 5A.
(1 picture or pasted object on this page, not shown here)

HOIP RBR domain [2] = target: T1, HOIP RBR domain; assay: In vitro polyubiquitination assay; assay type: biochemical; conditions: HOIP RBR preincubated with compound (200 μM) overnight; E2 UbcH7 or UbcH5c; vs DMSO
Method: 4.3 Polyubiquitination assay
The ubiquitination assay was essentially carried out as previously described.12 The HOIP RBR domain was pre-incubated with compounds (5) or (6), or DMSO in 50 mM HEPES, 150 mM NaCl, pH 7.5 buffer at 23 °C with gentle shaking for overnight (20-24 h). E1, E2 (UbcH7 or UbcH5c), ubiquitin, and MgCl2 were added to each vial, and aliquots of 15 µL were withdrawn to mark time zero. ATP was then added and aliquots of 15 µL were withdrawn after 5, 15, 30, and 60 min incubation. Final concentrations: E1 (1 µM), E2 (5 µM), E3 (5 µM), compounds (200 µM), DMSO (1%), ubiquitin (40 µM), MgCl2 (20 mM), ATP (10 mM); reaction volume 100 µL. The aliquots were analyzed by SDS PAGE (Figure 4A and Supplementary Figure S9) as described below (section

[3] = tested on: NF-κB activation in HEK293T cells overexpressing full length HOIP, HOIL-1L, and SHARPIN; assay: NF-κB Luciferase reporter assay; assay type: cell-based; conditions: overnight (17 h) treatment
Method: suspensions were agitated at 4 °C overnight. The supernatants were removed and kept on ice, and the beads were washed with wash buffer (2 × 0.5 mL), PBS (2 × 0.5 mL), and 50 mM HEPES, 150 mM NaCl, pH 7.5 buffer (2 × 0.5 mL).
A polyubiquitination assay master mix was prepared by mixing E1, UbcH7, ubiquitin, MgCl2, in buffer (50 mM HEPES, 150 mM NaCl, pH 7.5). The solution (30 µL per sample) was added to the beads, and lastly ATP (0.6 µL of 100 mM stock) was added to initiate the reaction. Final concentrations were E1 (0.2 µM), UbcH7 E2 (1 µM), ubiquitin (10 µM), MgCl2 (4 mM), ATP (2 mM). The vials were incubated (Eppendorf Thermomixer) at 25 °C, 900 rpm for 1.5 h. […] All samples were analyzed by SDS PAGE and Western Blot (Figure 6C and Supplementary Figure S13) as described in sections 4.5 and 4.6. […]
(§1) Reporter assays: After incubating the plates for 17 h, Firefly and Renilla Luciferase activity was analyzed using the Dual-Luciferase® Reporter Assay System (Promega) and a BertholdTech […]
(§2) with Mikrowin 2000 software version 4.41: using its injectors to inject 100 µL LAR II and 100 µL Stop&Glo (see manufacturer’s instructions; Promega #E1960). NF-κB regulated luciferase activity was first normalized to Renilla luciferase activity and then the fold activation relative to cells transfected with empty vector calculated. […]
reader. […]

[4] = tested on: HEK293T cells overexpressing full-length HOIP, HOIL-1L, and SHARPIN; assay: CellTiter-Glo Luminescent cell viability assay, transfected cells; assay type: cell-based; conditions: 17 h
Method: Thurston, Imperial College London. 2.3 × 10^6 cells were seeded into 100 mm Petri dishes in DMEM media supplemented with 10% v/v FBS (Biosera) and 1% v/v L-glutamine/penicillin/streptomycin (Sigma-Aldrich) and incubated at 37 °C overnight. The following morning the cells were transfected using either 6 µg pcDNA3 or 4.5 µg HOIP, 0.3 µg HOIL-1L and 1.2 µg SHARPIN as well as 450 ng pRDII Luc and 180 ng pRLTK (Promega) plasmids. 7 h after transfection, the cells were trypsinized and re-suspended in DMEM media supplemented with 1% v/v FBS (Biosera) and 1% v/v L-glutamine/penicillin/streptomycin (Sigma-Aldrich). […]
as §1, §2
Cell viability assays: After incubating the plates for 17 h in the presence of compound, cell viability was determined using the CellTiter-Glo® Luminescent Cell Viability Assay according to manufacturer’s instructions (Promega #G7571). […]

| labeling of HOIP RBR domain relative to hit (5) (HOIP RBR domain [1]) | Structure (SMILES) | other results |
| --- | --- | --- |
| abolished activity | COC(=O)CCCNC(=O)c1cc2c([nH]c1=O)CCC2 [Compound 6] | polyubiquitin chain formation (HOIP RBR domain [2]): no inhibitory effect; also recorded: no effect on catalytic activity |
| significantly lower activity | COC(=O)/C=C/CCNC(=O)c1cc2c([nH]c1=O)CCC2 [Compound 9] |  |
| significantly lower activity | COC(=O)/C=C/CNC(C)=O [Compound 10] |  |
| inactive | COC(=O)/C=C/CNC(=O)c1ccc(-c2ccccc2)[nH]c1=O [Compound 11i] |  |
|  | COC(=O)CCCNC(=O)c1cc2c([nH]c1=O)CCCC2 [Compound 17] | labeling of HOIP RBR domain (HOIP RBR domain [1]; 200 μM compound): abolished activity; effect on NF-κB activity [3]: no effect on NF-κB activity; effect on cell viability [4]: neither compound had any effect on cell viability |
